Test results as given in the NIST ThermoML archive (doi:10.1016/j.jct.2013.01.005).
± gives the expanded uncertainty stated by the source.

Test: activity coefficient (dimensionless); of the first substance listed, at infinite dilution; xn = mol fraction of the nth substance listed
Conditions: 101 kPa, Liquid, Chromatography, x1 = 0

| Structure (SMILES) | activity coefficient (308.15 K) | activity coefficient (318.15 K) | activity coefficient (328.15 K) | activity coefficient (338.15 K) | activity coefficient (348.15 K) | activity coefficient (358.15 K) |
| --- | --- | --- | --- | --- | --- | --- |
| C#CCCC [1-pentyne] + CCCCCC[N+]1(C)CCCCC1.O=S(=O)([N-]S(=O)(=O)C(F)(F)F)C(F)(F)F | 1.42 ± 0.09 | 1.45 ± 0.1 | 1.48 ± 0.1 | 1.5 ± 0.1 | 1.53 ± 0.1 | 1.54 ± 0.1 |
| c1ccsc1 [thiophene] + CCCCCC[N+]1(C)CCCCC1.O=S(=O)([N-]S(=O)(=O)C(F)(F)F)C(F)(F)F | 0.614 ± 0.043 | 0.627 ± 0.043 | 0.643 ± 0.044 | 0.655 ± 0.045 | 0.664 ± 0.045 | 0.675 ± 0.046 |
| Cc1ccccc1 [toluene] + CCCCC[N+]1(C)CCCCC1.O=S(=O)([N-]S(=O)(=O)C(F)(F)F)C(F)(F)F | 0.91 ± 0.058 | 0.919 ± 0.058 | 0.955 ± 0.06 | 0.975 ± 0.061 | 1.01 ± 0.06 | 1.05 ± 0.07 |
| C1CCCCCC1 [cycloheptane] + CCCCC[N+]1(C)CCCCC1.O=S(=O)([N-]S(=O)(=O)C(F)(F)F)C(F)(F)F | 7.97 ± 0.54 | 7.49 ± 0.51 | 7.13 ± 0.49 | 6.82 ± 0.46 | 6.54 ± 0.45 | 6.26 ± 0.43 |
| C=CCCCC [hex-1-ene] + CCCCC[N+]1(C)CCCCC1.O=S(=O)([N-]S(=O)(=O)C(F)(F)F)C(F)(F)F | 5.52 ± 0.38 | 5.31 ± 0.36 | 5.13 ± 0.35 | 5 ± 0.34 | 4.92 ± 0.34 | 4.8 ± 0.33 |
| CCCCC [pentane] + CCCCCC[N+]1(C)CCCCC1.O=S(=O)([N-]S(=O)(=O)C(F)(F)F)C(F)(F)F | 5.95 ± 0.41 | 5.73 ± 0.39 | 5.42 ± 0.37 | 5.3 ± 0.36 | 5.2 ± 0.35 | 4.95 ± 0.34 |
| CCCO [propan-1-ol] + CCCCC[N+]1(C)CCCCC1.O=S(=O)([N-]S(=O)(=O)C(F)(F)F)C(F)(F)F | 2.05 ± 0.14 | 1.82 ± 0.12 | 1.68 ± 0.11 | 1.55 ± 0.1 | 1.46 ± 0.1 | 1.36 ± 0.09 |
| C#CCCCCC [1-heptyne] + CCCCC[N+]1(C)CCCCC1.O=S(=O)([N-]S(=O)(=O)C(F)(F)F)C(F)(F)F | 2.78 ± 0.19 | 2.81 ± 0.19 | 2.84 ± 0.19 | 2.87 ± 0.2 | 2.91 ± 0.2 | 2.94 ± 0.2 |
| CC(C)=O [acetone] + CCCCC[N+]1(C)CCCCC1.O=S(=O)([N-]S(=O)(=O)C(F)(F)F)C(F)(F)F | 0.398 ± 0.034 | 0.426 ± 0.035 | 0.435 ± 0.035 | 0.441 ± 0.035 | 0.456 ± 0.036 | 0.466 ± 0.036 |
| CO [methanol] + CCCCCC[N+]1(C)CCCCC1.O=S(=O)([N-]S(=O)(=O)C(F)(F)F)C(F)(F)F | 1.51 ± 0.1 | 1.37 ± 0.09 | 1.26 ± 0.08 | 1.16 ± 0.07 | 1.08 ± 0.07 | 0.995 ± 0.062 |
| C#CCCCCC [1-heptyne] + CCCCCC[N+]1(C)CCCCC1.O=S(=O)([N-]S(=O)(=O)C(F)(F)F)C(F)(F)F | 2.39 ± 0.16 | 2.43 ± 0.17 | 2.46 ± 0.17 | 2.49 ± 0.17 | 2.52 ± 0.17 | 2.55 ± 0.17 |
| CCCCCCCCCC [decane] + CCCCC[N+]1(C)CCCCC1.O=S(=O)([N-]S(=O)(=O)C(F)(F)F)C(F)(F)F | 31.9 ± 2.2 | 29.5 ± 2 | 27.9 ± 1.9 | 26.2 ± 1.8 | 25.1 ± 1.7 | 23.8 ± 1.6 |
